Test system: drug-resistant Pseudomonas aeruginosa GDMCC No: 61027 (strain C218)
Experiment: Checkerboard microdilution of norharmane combined with an antibiotic (OD600 growth, MIC at 80% inhibition, FICI and ΔE evaluation)
Format: cell-based
Experimental: Preparation of bacterial solution: Pseudomonas aeruginosa GDMCC No: 61027 stored at −80° C., was thawed at room temperature, streaked on LB agar medium and cultured at 37° C. for 24 h, and then a single well-developed colony was inoculated again and cultured for 24 h at 37° C. to ensure that the strain was in the growth phase. A single colony was selected, inoculated into LB medium, and cultured at 37° C. and 200 rpm. for 16 h. The resulting solution was diluted 10000 times with fresh LB medium to obtain Pseudomonas aeruginosa GDMCC No:61027 bacterial solution whose concentration calculated by of the amount of bacterial viable count was […].
According to the checkerboard microdilution method, the norharmane mother liquor was diluted 4 times with methanol, and the concentration ranges of norharmane and an antibiotic (polymyxin B, imipenem-cilastatin sodium or levofloxacin) in combination were screened.
Methanol was used as a diluent, the preparation concentrations of norharmane were 160, 80, 40, 20, 10, 5 and 2.5 μg/mL, the preparation concentrations of polymyxin B were 31.25, 15.6, 7.8, 3.9, 1.95, 0.98 and 0.49 μg/mL; the preparation concentrations of imipenem-cilastatin sodium were 8000, 4000, 2000, 1000, 500, 250 and 125 μg/mL; the preparation concentrations of levofloxacin were 250, 125, 62.5, 31.25, 15.6, 7.8 and 3.9 μg/mL; and the preparation concentrations of ofloxacin were 2000, 1000, 500, 250, 125, 62.5, and 31.25 μg/mL.
According to FIG. 7, each antibiotic is added into a 96-well plate, and 50 μL of the antibiotic solutions were drawn and added into wells in columns 2˜8 of the %-well plate in the order of concentration from low to high, while the same amount of methanol instead of antibiotic was added into column 1. 50 μL of the norharmane solutions were drawn and added into wells in rows G˜A of the 96-well plate in the order of concentration from low to high, while no norharmane was added into wells in row H. After the 96-well plate was left to stand to evaporate methanol completely, 200 μL of the Pseudomonas aeruginosa GDMCC No: 61027 bacterial solution (2.6×10^9 CFU) were added into the wells in columns 1˜8. Therefore, the final concentrations of norharmane were 40, 20, 10, 5, 2.5, 1.25, 0.63 and 0 μg/mL; the final concentrations of norharmane were polymyxin B is 7.8, 3.9, 1.95, 0.98, 0.49, 0.24, 0.12 and 0 μg/mL; the final concentrations of imipenem-cilastatin sodium were 2000, 1000, 500, 250, 125, 62.5, 31.25 and 0 μg/mL; the final concentrations of levofloxacin were 62.5, 31.25, 15.6, 7.8, 3.9, 1.95, 0.98 and 0 μg/mL; and the final concentrations of ofloxacin were 500, 250, 125, 62.5, 31.25, 15.6, 7.8 and 0 μg/mL. 200 μL of fresh LB medium were added to column 9. Wherein, well H1 is a growth control well, containing only bacterial solution and no drugs, and column 9 is a blank control containing only LB liquid medium. The prepared 96-well plate was placed in a constant temperature incubator at 37° C. for 24 h, and then OD600 was measured with a microplate reader and the results were recorded. All experiments were repeated three times.
OD value of each well at 600 nm was measured with a microplate reader. And the percentage of the bacterial growth inhibition of each well was determined as
Loewe additivity (LA) theory assumes that the drugs applied in combination have no interaction, i.e., null reference model. FICI method is the non-parametric method of LA theory, which can be expressed as: ΣFIC=FICA+FICB=CA/MICA+CB/MICB
wherein MICA and MICB denote minimum inhibitory concentrations of two drugs A and B when used alone, respectively, and CA and CB denote concentration of drugs A and B in combination respectively while their combined effect is equal to the sum of their individual separate effects. ΣFIC value of each well with percentage of the bacterial growth inhibition >80% were calculated, and in the ΣFIC values obtained, if ΣFICmax>4, FICI=ΣFICmax; if ΣFICmax<4, FICI=ΣFICmin. […]

[1] = end point 80% growth inhibition

`CC1COc2c(N3CCN(C)CC3)c(F)cc3c(=O)c(C(=O)O)cn1c23` (centres unmarked) [Ofloxacin, ofloxacin, reference compound] was tested. Which “MIC MICB: minimum inhibitory concentration of the antibiotic when used alone” value [1] did it give?
The value was 500 µg/mL.

What about the Growth percentage (ofloxacin 7.8 μg/ml alone (norharmane 0)) of the same molecule?
Its Growth percentage is 83%.

And the Growth percentage (ofloxacin 15.6 μg/ml alone (norharmane 0))?
Its Growth percentage is 79%.

And the Growth percentage (ofloxacin 31.25 μg/ml alone (norharmane 0))?
Its Growth percentage is 73%.

And the Growth percentage (ofloxacin 62.5 μg/ml alone (norharmane 0))?
The Growth percentage was 67%.

And the Growth percentage (ofloxacin 125 μg/ml alone (norharmane 0))?
Its Growth percentage is 54%.

And the Growth percentage (ofloxacin 250 μg/ml alone (norharmane 0))?
The Growth percentage was 36%.

What about the Growth percentage (ofloxacin 500 μg/ml alone (norharmane 0)) of the same molecule?
The Growth percentage was 6%.

What does the source list for polymyxin B [reference compound]?
MIC MICB: minimum inhibitory concentration of the antibiotic when used alone [1]: 7.8 µg/mL; Growth percentage (polymyxin B 0.12 μg/ml alone (norharmane 0)): 100%; Growth percentage (polymyxin B 0.24 μg/ml alone (norharmane 0)): 98%; Growth percentage (polymyxin B 0.49 μg/ml alone (norharmane 0)): 98%; Growth percentage (polymyxin B 0.98 μg/ml alone (norharmane 0)): 90%; Growth percentage (polymyxin B 1.95 μg/ml alone (norharmane 0)): 52%; Growth percentage (polymyxin B 3.9 μg/ml alone (norharmane 0)): 29%; Growth percentage (polymyxin B 7.8 μg/ml alone (norharmane 0)): 5%

Which results are given for `c1ccc2c(c1)[nH]c1cnccc12` [Norharmane, norharmane]?
Growth percentage (norharmane 0.63 μg/ml alone, imipenem-cilastatin sodium 0 (Table 2)): 94%; Growth percentage (norharmane 0.63 μg/ml alone, levofloxacin 0 (Table 3)): 98%; Growth percentage (norharmane 0.63 μg/ml alone, ofloxacin 0 (Table 4)): 99%; Growth percentage (norharmane 0.63 μg/ml alone, polymyxin B 0 (Table 1)): 99%; Growth percentage (norharmane 1.25 μg/ml alone, imipenem-cilastatin sodium 0 (Table 2)): 92%; Growth percentage (norharmane 1.25 μg/ml alone, levofloxacin 0 (Table 3)): 94%; Growth percentage (norharmane 1.25 μg/ml alone, ofloxacin 0 (Table 4)): 98%; Growth percentage (norharmane 1.25 μg/ml alone, polymyxin B 0 (Table 1)): 96%; Growth percentage (norharmane 2.5 μg/ml alone, imipenem-cilastatin sodium 0 (Table 2)): 87%; Growth percentage (norharmane 2.5 μg/ml alone, levofloxacin 0 (Table 3)): 94%; Growth percentage (norharmane 2.5 μg/ml alone, ofloxacin 0 (Table 4)): 97%; Growth percentage (norharmane 2.5 μg/ml alone, polymyxin B 0 (Table 1)): 96%; Growth percentage (norharmane 5 μg/ml alone, imipenem-cilastatin sodium 0 (Table 2)): 87%; Growth percentage (norharmane 5 μg/ml alone, levofloxacin 0 (Table 3)): 92%; Growth percentage (norharmane 5 μg/ml alone, ofloxacin 0 (Table 4)): 95%; Growth percentage (norharmane 5 μg/ml alone, polymyxin B 0 (Table 1)): 95%; Growth percentage (norharmane 10 μg/ml alone, imipenem-cilastatin sodium 0 (Table 2)): 86%; Growth percentage (norharmane 10 μg/ml alone, levofloxacin 0 (Table 3)): 98%; Growth percentage (norharmane 10 μg/ml alone, ofloxacin 0 (Table 4)): 94%; Growth percentage (norharmane 10 μg/ml alone, polymyxin B 0 (Table 1)): 95%; Growth percentage (norharmane 20 μg/ml alone, imipenem-cilastatin sodium 0 (Table 2)): 85%; Growth percentage (norharmane 20 μg/ml alone, levofloxacin 0 (Table 3)): 95%; Growth percentage (norharmane 20 μg/ml alone, ofloxacin 0 (Table 4)): 88%; Growth percentage (norharmane 20 μg/ml alone, polymyxin B 0 (Table 1)): 95%; Growth percentage (norharmane 40 μg/ml alone, imipenem-cilastatin sodium 0 (Table 2)): 82%; Growth percentage (norharmane 40 μg/ml alone, levofloxacin 0 (Table 3)): 93%; Growth percentage (norharmane 40 μg/ml alone, ofloxacin 0 (Table 4)): 81%; Growth percentage (norharmane 40 μg/ml alone, polymyxin B 0 (Table 1)): 84%; MIC MICA: minimum inhibitory concentration of a drug used alone (norharmane used alone, end point 80% growth inhibition): 40 µg/mL

What does the source list for `C[C@H]1COc2c(N3CCN(C)CC3)c(F)cc3c(=O)c(C(=O)O)cn1c23` [Levofloxacin, levofloxacin, reference compound]?
MIC MICB: minimum inhibitory concentration of the antibiotic when used alone [1]: 62.5 µg/mL; Growth percentage (levofloxacin 0.98 μg/ml alone (norharmane 0)): 91%; Growth percentage (levofloxacin 1.95 μg/ml alone (norharmane 0)): 89%; Growth percentage (levofloxacin 3.9 μg/ml alone (norharmane 0)): 85%; Growth percentage (levofloxacin 7.8 μg/ml alone (norharmane 0)): 72%; Growth percentage (levofloxacin 15.6 μg/ml alone (norharmane 0)): 42%; Growth percentage (levofloxacin 31.25 μg/ml alone (norharmane 0)): 26%; Growth percentage (levofloxacin 62.5 μg/ml alone (norharmane 0)): 5%

From patent US12453720B2, “Application of norharmane in improving antibacterial activity of antibiotics” (ZHEJIANG UNIVERSITY OF TECHNOLOGY, priority 2020, dated 2025)
